Earlier results, collected in patent US20060045865A1, “Controlled regional oral delivery” (Spherics, Inc., priority 2004, published 2006).
Like-named read-outs stand apart in the source and are kept apart here.

Assays:
[1] = not given; remark: listed apart in the source
H. pylori = details: pH 5.5

In the case of `C=CC[C@@H]1/C=C(\C)C[C@H](C)C[C@H](OC)[C@H]2O[C@@](O)(C(=O)C(=O)N3CCCC[C@H]3C(=O)O[C@H](/C(C)=C/[C@@H]3CC[C@@H](O)[C@H](OC)C3)[C@H](C)[C@@H](O)CC1=O)[C@H](C)C[C@@H]2OC` [Tacrolimus], the Solubility in water is given as “practically insoluble” and the Absolute bioavailability ([1]; 5 mg dose taken twice a day) is given as “approximately 17%”.

For `CC(=O)O[C@H]1C(=O)[C@@]2(C)[C@H]([C@H](OC(=O)c3ccccc3)[C@]3(O)C[C@H](OC(=O)[C@H](O)[C@@H](NC(=O)c4ccccc4)c4ccccc4)C(C)=C1C3(C)C)[C@]1(OC(C)=O)CO[C@@H]1C[C@@H]2O` [Paclitaxel], the Solubility in water is given as “insoluble”.

In the case of `C#C[C@]1(O)CC[C@H]2[C@@H]3CCC4=Cc5oncc5C[C@]4(C)[C@H]3CC[C@@]21C` [Danazol, 17a-Pregna-2,4-dien-20-yno[2,3-d]-isoxazol-17-ol], the Half-life ([1]; oral administration) is listed as 4 to 5 h and the “Time to peak plasma concentration” value ([1]; oral dose) is listed as ≤ 2 h.

For `CC[C@H]1OC(=O)[C@H](C)[C@@H](O[C@H]2C[C@@](C)(OC)[C@@H](O)[C@H](C)O2)[C@H](C)[C@@H](O[C@@H]2O[C@H](C)C[C@H](N(C)C)[C@H]2O)[C@](C)(OC)C[C@@H](C)C(=O)[C@H](C)[C@@H](O)[C@]1(C)O` [clarithromycin], the Decrease in activity (H. pylori) is given as > 16 fold.

For `CC(C)[C@H](N)C(=O)OCCOCn1cnc2c(=O)[nH]c(N)nc21` [Valacyclovir], the Solubility in water is listed as “greater solubility in water than acyclovir” and the Bioavailability ([1]; oral) is listed as “approximately 50%”.

For “1-[(4R,5s)-5-[(2-aminoethyl)amino]-N^2-(10,12-dimethyl-1-oxotetradecyl)-4-hydroxy-L-ornithine]-5-[(3IRI)-3-hydroxy-L-ornithine]pneumocandin B0 diacetate (salt) [Caspofungin acetate]”, the Solubility in water is listed as “freely soluble” and the Bioavailability ([1]; oral) is listed as 0%.

For `Nc1nc2c(ncn2COCCO)c(=O)[nH]1` [Acyclovir, 2-amino-1,9-dihydro-9-[(2-hydroxyethoxy)methyl]-6H-purin-6-one], the Bioavailability ([1]; oral) is listed as 10-20%.

In the case of `NC(=O)N1c2ccccc2C=Cc2ccccc21` [Carbamazepine, 5H-dibenz[b,f]azepine-5-carboxamide], the Bioavailability ([1]; in vivo, po) is given as 89%.

For `NCC1(CC(=O)O)CCCCC1` [Gabapentin], the Bioavailability ([1]; 900 mg dose, given three times a day) is listed as ≤ 60%.
